Assay results: US11634447B2 (priority 2012, dated 2023)
pIC50: −log10 of the molar value.

What follows are molecules tested on bacterial strain LF82 binding to the glycoprotein BSA-(Mannose)3 (assay: Bacterial Binding Assay (BBA)). Settings: read-out: Bacterial Binding Assay IC50, LF82/Luciferase strain binding to BSA-(Man)3 coated plates, luminescence.
Assay type: cell-based, Escherichia coli
Procedure, shortened: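 Inhibition of LF82/luciferase E. coli adhesion is read as luminescence after washing off unbound cells. Compound and bacteria (10^7 per well) are co-incubated 40-75 min at room temperature on wells coated with 0.5-2 μg/mL BSA-(Man)3, with BSA-only wells as background; IC50 values derived.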

Structure (SMILES) | pIC50
O=C(c1c(C#C[C@H]2O[C@H](CO)[C@@H](O)[C@H](O)[C@@H]2O)ccc2c1C1(CCNCC1)c1cc(C#C[C@H]3O[C@H](CO)[C@@H](O)[C@H](O)[C@@H]3O)ccc1-2)C1CCC1 [Compound 226, [2,7-bis[2-[(2R,3S,4R,5S,6R)-3,4,5-trihydroxy-6-(hydroxymethyl)tetrahydropyran-2-yl]ethynyl]spiro[fluorene-9,4piperidine]-1yl]-cyclobutyl-methanone] | 10.22
O=C(c1c(C#C[C@H]2O[C@H](CO)[C@@H](O)[C@H](O)[C@@H]2O)ccc2c1C1(CCNCC1)c1cc(C#C[C@H]3O[C@H](CO)[C@@H](O)[C@H](O)[C@@H]3O)ccc1-2)C1(O)CC1 [Compound 227, [2,7-bis[2-[(2R,3S,4R,5S,6R)-3,4,5-trihydroxy-6-(hydroxymethyl)tetrahydropyran-2-yl]ethynyl]spiro[fluorene-9,4piperidine]-1yl]-(1hydroxycyclopropyl)methanone] | 10.22
CC(C)(C)C(=O)N1CCC2(CC1)c1cc(C#C[C@H]3O[C@H](CO)[C@@H](O)[C@H](O)[C@@H]3O)ccc1-c1ccc(C#C[C@H]3O[C@H](CO)[C@@H](O)[C@H](O)[C@@H]3O)cc12 [Compound 228, 1-[2,7-bis[2-[(2R,3S,4R,5S,6R)-3,4,5-trihydroxy-6-(hydroxymethyl)tetrahydropyran-2-yl]ethynyl]spiro[fluorene-9,4piperidine]-1yl]-2,2-dimethyl-propan-l-one] | 9.36
CO[C@H](C)C(=O)c1c(C#C[C@H]2O[C@H](CO)[C@@H](O)[C@H](O)[C@@H]2O)ccc2c1C1(CCNCC1)c1cc(C#C[C@H]3O[C@H](CO)[C@@H](O)[C@H](O)[C@@H]3O)ccc1-2 [Compound 229, (2R)-1-[2,7-bis[2-[(2R,3S,4R,5S,6R)-3,4,5-trihydroxy-6-(hydroxymethyl)tetrahydropyran-2-yl]ethynyl]spiro[fluorene-9,4piperidine]-1yl]-2-methoxy-propan-1-one] | 9.46
N#CC1(C(=O)c2c(C#C[C@H]3O[C@H](CO)[C@@H](O)[C@H](O)[C@@H]3O)ccc3c2C2(CCNCC2)c2cc(C#C[C@H]4O[C@H](CO)[C@@H](O)[C@H](O)[C@@H]4O)ccc2-3)CC1 [Compound 230, 1-[2,7-bis[2-[(2R,3S,4R,5S,6R)-3,4,5-trihydroxy-6-(hydroxymethyl)tetrahydropyran-2-yl]ethynyl]spiro[fluorene-9,4piperidine]-1carbonyl]cyclopropanecarbonitrile] | 9.80
O=C(c1ccn[nH]1)N1CCC2(CC1)c1cc(C#C[C@H]3O[C@H](CO)[C@@H](O)[C@H](O)[C@@H]3O)ccc1-c1ccc(C#C[C@H]3O[C@H](CO)[C@@H](O)[C@H](O)[C@@H]3O)cc12 [Compound 231] | 10.10
O=C(c1ccno1)c1c(C#C[C@H]2O[C@H](CO)[C@@H](O)[C@H](O)[C@@H]2O)ccc2c1C1(CCNCC1)c1cc(C#C[C@H]3O[C@H](CO)[C@@H](O)[C@H](O)[C@@H]3O)ccc1-2 [Compound 232, [2,7-bis[2-[(2R,3S,4R,5S,6R)-3,4,5-trihydroxy-6-(hydroxymethyl)tetrahydropyran-2-yl]ethynyl]spiro[fluorene-9,4piperidine]-1yl]-isoxazol-5-yl-methanone] | 10.40
O=C(c1c(C#C[C@H]2O[C@H](CO)[C@@H](O)[C@H](O)[C@@H]2O)ccc2c1C1(CCNCC1)c1cc(C#C[C@H]3O[C@H](CO)[C@@H](O)[C@H](O)[C@@H]3O)ccc1-2)[C@H]1CCCO1 [Compound 233, [2,7-bis[2-[(2R,3S,4R,5S,6R)-3,4,5-trihydroxy-6-(hydroxymethyl)tetrahydropyran-2-yl]ethynyl]spiro[fluorene-9,4piperidine]-1yl]-[(2R)-tetrahydrofuran-2-yl]methanone] | 10.30
NC(=O)CCC(=O)c1c(C#C[C@H]2O[C@H](CO)[C@@H](O)[C@H](O)[C@@H]2O)ccc2c1C1(CCNCC1)c1cc(C#C[C@H]3O[C@H](CO)[C@@H](O)[C@H](O)[C@@H]3O)ccc1-2 [Compound 234, 4-[2,7-bis[2-[(2R,3S,4R,5S,6R)-3,4,5-trihydroxy-6-(hydroxymethyl)tetrahydropyran-2-yl]ethynyl]spiro[fluorene-9,4piperidine]-1yl]-4-oxo-butanamide] | 10.40
O=C(c1c(C#C[C@H]2O[C@H](CO)[C@@H](O)[C@H](O)[C@@H]2O)ccc2c1C1(CCNCC1)c1cc(C#C[C@H]3O[C@H](CO)[C@@H](O)[C@H](O)[C@@H]3O)ccc1-2)C1CC1(F)F (stereo partly drawn) [Compound 235, [2,7-bis[2-[(2R,3S,4R,5S,6R)-3,4,5-trihydroxy-6-(hydroxymethyl)tetrahydropyran-2-yl]ethynyl]spiro[fluorene-9,4piperidine]-1yl]-(2,2-difluorocyclopropyl)methanone] | 10.52
O=C(c1cnccn1)c1c(C#C[C@H]2O[C@H](CO)[C@@H](O)[C@H](O)[C@@H]2O)ccc2c1C1(CCNCC1)c1cc(C#C[C@H]3O[C@H](CO)[C@@H](O)[C@H](O)[C@@H]3O)ccc1-2 [Compound 236, [2,7-bis[2-[(2R,3S,4R,5S,6R)-3,4,5-trihydroxy-6-(hydroxymethyl)tetrahydropyran-2-yl]ethynyl]spiro[fluorene-9,4piperidine]-1yl]-pyrazin-2-yl-methanone] | 9.30
Cn1nccc1C(=O)c1c(C#C[C@H]2O[C@H](CO)[C@@H](O)[C@H](O)[C@@H]2O)ccc2c1C1(CCNCC1)c1cc(C#C[C@H]3O[C@H](CO)[C@@H](O)[C@H](O)[C@@H]3O)ccc1-2 [Compound 237, [2,7-bis[2-[(2R,3S,4R,5S,6R)-3,4,5-trihydroxy-6-(hydroxymethyl)tetrahydropyran-2-yl]ethynyl]spiro[fluorene-9,4piperidine]-1yl]-(2-methylpyrazol-3-yl)methanone] | 9.66
Cn1ccc(C(=O)c2c(C#C[C@H]3O[C@H](CO)[C@@H](O)[C@H](O)[C@@H]3O)ccc3c2C2(CCNCC2)c2cc(C#C[C@H]4O[C@H](CO)[C@@H](O)[C@H](O)[C@@H]4O)ccc2-3)n1 [Compound 238, [2,7-bis[2-[(2R,3S,4R,5S,6R)-3,4,5-trihydroxy-6-(hydroxymethyl)tetrahydropyran-2-yl]ethynyl]spiro[fluorene-9,4piperidine]-1yl]-(1-methylpyrazol-3-yl)methanone] | 10.05
Cc1cccc(C(=O)c2c(C#C[C@H]3O[C@H](CO)[C@@H](O)[C@H](O)[C@@H]3O)ccc3c2C2(CCNCC2)c2cc(C#C[C@H]4O[C@H](CO)[C@@H](O)[C@H](O)[C@@H]4O)ccc2-3)n1 [Compound 239, [2,7-bis[2-[(2R,3S,4R,5S,6R)-3,4,5-trihydroxy-6-(hydroxymethyl)tetrahydropyran-2-yl]ethynyl]spiro[fluorene-9,4piperidine]-1yl]-(6-methyl-2-pyridyl)methanone] | 9.46
O=C(CCn1cccn1)c1c(C#C[C@H]2O[C@H](CO)[C@@H](O)[C@H](O)[C@@H]2O)ccc2c1C1(CCNCC1)c1cc(C#C[C@H]3O[C@H](CO)[C@@H](O)[C@H](O)[C@@H]3O)ccc1-2 [Compound 240, 1-[2,7-bis[2-[(2R,3S,4R,5S,6R)-3,4,5-trihydroxy-6-(hydroxymethyl)tetrahydropyran-2-yl]ethynyl]spiro[fluorene-9,4piperidine]-1yl]-3-pyrazol-1-yl-propan-1-one] | 10.30
O=C(CN1CCCC1=O)c1c(C#C[C@H]2O[C@H](CO)[C@@H](O)[C@H](O)[C@@H]2O)ccc2c1C1(CCNCC1)c1cc(C#C[C@H]3O[C@H](CO)[C@@H](O)[C@H](O)[C@@H]3O)ccc1-2 [Compound 241, 1-[2-[2,7-bis[2-[(2R,3S,4R,5S,6R)-3,4,5-trihydroxy-6-(hydroxymethyl)tetrahydropyran-2-yl]ethynyl]spiro[fluorene-9,4piperidine]-1yl]-2-oxo-ethyl]pyrrolidin-2-one] | 10.52
O=C(c1c(C#C[C@H]2O[C@H](CO)[C@@H](O)[C@H](O)[C@@H]2O)ccc2c1C1(CCNCC1)c1cc(C#C[C@H]3O[C@H](CO)[C@@H](O)[C@H](O)[C@@H]3O)ccc1-2)[C@@H]1CCCO1 [Compound 242, [2,7-bis[2-[(2R,3S,4R,5S,6R)-3,4,5-trihydroxy-6-(hydroxymethyl)tetrahydropyran-2-yl]ethynyl]spiro[fluorene-9,4piperidine]-1yl]-[(2S)-tetrahydrofuran-2-yl]methanone] | 9.74
O=C1CC[C@H](C(=O)c2c(C#C[C@H]3O[C@H](CO)[C@@H](O)[C@H](O)[C@@H]3O)ccc3c2C2(CCNCC2)c2cc(C#C[C@H]4O[C@H](CO)[C@@H](O)[C@H](O)[C@@H]4O)ccc2-3)N1 [Compound 243, (5R)-5-[2,7-bis[2-[(2R,3S,4R,5S,6R)-3,4,5-trihydroxy-6-(hydroxymethyl)tetrahydropyran-2-yl]ethynyl]spiro[fluorene-9,4piperidine]-1carbonyl]pyrrolidin-2-one] | 9.66
O=C1CC[C@@H](C(=O)c2c(C#C[C@H]3O[C@H](CO)[C@@H](O)[C@H](O)[C@@H]3O)ccc3c2C2(CCNCC2)c2cc(C#C[C@H]4O[C@H](CO)[C@@H](O)[C@H](O)[C@@H]4O)ccc2-3)N1 [Compound 244, (5S)-5-[2,7-bis[2-[(2R,3S,4R,5S,6R)-3,4,5-trihydroxy-6-(hydroxymethyl)tetrahydropyran-2-yl]ethynyl]spiro[fluorene-9,4piperidine]-1carbonyl]pyrrolidin-2-one] | 9.62
Cn1cc(C(=O)c2c(C#C[C@H]3O[C@H](CO)[C@@H](O)[C@H](O)[C@@H]3O)ccc3c2C2(CCNCC2)c2cc(C#C[C@H]4O[C@H](CO)[C@@H](O)[C@H](O)[C@@H]4O)ccc2-3)cn1 [Compound 245, [2,7-bis[2-[(2R,3S,4R,5S,6R)-3,4,5-trihydroxy-6-(hydroxymethyl)tetrahydropyran-2-yl]ethynyl]spiro[fluorene-9,4piperidine]-1yl]-(1-methylpyrazol-4-yl)methanone] | 9.85
